Where a name gives a salt, the structure may show the parent alone.
Biological target: T1, PD brain-derived alpha-synuclein aggregates (Homo sapiens, UniProt P37840)
T1 construct: from tissue; host or cells: human PD donor brain, sarkosyl-insoluble pellet
Test: Micro-radiobinding competition assay
Assay type: binding
Settings: for Competition at 100 nM (%): 100 nM example compound; for Competition at 100 nM (%) / Competition at 1 μM (%): competition over [3H]-alpha-syn reference ligand (20 nM or 30 nM), human PD brain-derived a-syn aggregates; for Competition at 1 μM (%): 1 μM example compound; for Ki: mean of two independent experiments, PD brain-derived homogenates from two different donors
Protocol: The procedure was adapted from the protocol described in Spillantini et al., 1998. Frozen tissue blocks from PD donors were thawed on ice and homogenized using a glass dounce homogenizer. The homogenate was then centrifuged at 11,000×g (12,700 RPM) in an ultracentrifuge (Beckman, XL100K) for 20 minutes at 4° C. using a pre-cooled 70.1 rotor (Beckman, 342184). Pellets were resuspended in extraction buffer [10 mM Tris-HCl pH 7.4, 10% sucrose, 0.85 M NaCl, 1% protease inhibitor (Calbiochem 539131), 1 mM EGTA, 1% phosphatase inhibitor (Sigma P5726 and P0044)] and centrifuged at 15,000×g (14,800 RPM, a 70.1 Ti rotor) for 20 minutes at 4° C. Pellets were discarded and sarkosyl (20% stock solution, Sigma L7414) was added to the supernatants to a final concentration of 1% and stirred at room temperature for one hour. This solution was then centrifuged at 100,000×g (38,000 RPM, 70.1 Ti rotor) for one hour at 4° C. Pellets containing enriched alpha-synuclein aggregates were resuspended in PBS per gram of brain initially used and stored at −80° C. until use.
PD brain-derived alpha-synuclein aggregates were spotted onto microarray slides. The slides were incubated with [^3H]-alpha-synuclein reference at 20 nM or 30 nM and the example compounds (non-radiolabelled) at 1 μM and 100 nM. In some cases, the non-radiolabelled example compounds were further assessed for a range of different concentrations, varying from 0.05 nM to 2 μM. After incubation, slides were washed and scanned by a real-time autoradiography system (BeaQuant, ai4R). Quantification of signal was performed by using the image analysis software Beamage (ai4R).
Non-specific signal was determined with an excess of non-radiolabelled alpha-syn reference compound (2 μM) and specific binding was calculated by subtracting the non-specific signal from the total signal. Competition was calculated as percentage, where 0% was defined as the specific binding in the presence of vehicle and 100% as the values obtained in the presence of excess of the non-radiolabelled alpha-syn reference compound. Ki values were calculated in GraphPad Prism7 by applying a nonlinear regression curve fit using a one site, specific binding model. All measurements were performed with at least two technical replicates. For compounds tested in more than one experiment, the mean of the replicates or Ki values in independent experiments is reported.

Competition at 100 nM (%) | Competition at 1 μM (%) | Ki [nM] | Structure (SMILES)
59 | 85 | 97 | O=C1N(c2cccnc2)Cc2nc(-c3ccc(N4CC[C@H](F)C4)nc3)cn21 [Example 3, (S)-2-(6-(3-fluoropyrrolidin-1-yl)pyridin-3-yl)-6-(pyridin-3-yl)-6,7-dihydro-5H-imidazo[1,5-a]imidazol-5-one Hydrochloride]
69 | 85 |  | O=C1N(c2cccnc2)Cc2cc(-c3ccc(N4CC[C@H](F)C4)nc3)cn21 [Example 7, (S)-6-(6-(3-fluoropyrrolidin-1-yl)pyridin-3-yl)-2-(pyridin-3-yl)-1,2-dihydro-3H-pyrrolo[1,2-c]imidazol-3-one Hydrogen Chloride Salt]
75 | 95 |  | O=C1N(c2cccnc2)Cc2cc(-c3ccc(N4CC[C@@H](F)C4)nc3)cn21 [Example 1, (R)-6-(6-(3-fluoropyrrolidin-1-yl)pyridin-3-yl)-2-(pyridin-3-yl)-1H-pyrrolo[1,2-c]imidazol-3(2H)-one Hydrochloride]
51 | 52 |  | O=C1N(c2cccnc2)Cc2cc(-c3ccc(F)nc3)cn21 [Example 4, 6-(6-fluoropyridin-3-yl)-2-(pyridin-3-yl)-1H-pyrrolo[1,2-c]imidazol-3(2H)-one]
82 | 100 |  | Cn1cc(N2Cc3cc(-c4ccc(N5CC[C@@H](F)C5)nc4)cn3C2=O)cn1 [Example 6, (R)-6-(6-(3-fluoropyrrolidin-1-yl)pyridin-3-yl)-2-(1-methyl-1H-pyrazol-4-yl)-1,2-dihydro-3H-pyrrolo[1,2-c]imidazol-3-one Hydrogen Chloride Salt]
87 | 102 |  | Cn1cc(N2Cc3cc(-c4ccc(N5CC[C@H](F)C5)nc4)cn3C2=O)cn1 [Example 5, (S)-6-(6-(3-fluoropyrrolidin-1-yl)pyridin-3-yl)-2-(1-methyl-1H-pyrazol-4-yl)-1,2-dihydro-3H-pyrrolo[1,2-c]imidazol-3-one Hydrogen Chloride Salt]
63 | 86 | 124 | O=C1N(c2cccnc2)Cc2nc(-c3ccc(N4CC[C@@H](F)C4)nc3)cn21 [Example 2, (R)-2-(6-(3-fluoropyrrolidin-1-yl)pyridin-3-yl)-6-(pyridin-3-yl)-6,7-dihydro-5H-imidazo[1,5-a]imidazol-5-one Hydrochloride]
